Test results: US7964624B1, “Inhibitors of serine proteases” (priority 2005, dated 2011)
pKi: −log10 of the molar value.

Biological target: T1, HCV NS3 protease domain (Hepatitis C virus genotype 1b, UniProt Q9WMX2)
T1 construct: The first 181 amino acids of NS3 (residues 1027-1207 of the viral polyprotein); hexa-histidine (C); made in house; host or cells: E. coli BL21/DE3 pLysS
Test: biochemical
Conditions: Enzyme Assay 1 (HCV NS3 Protease Domain Peptide Cleavage Assay) activity, apparent Ki class

T1 sequence (Q9WMX2 1027-1207, other chains not shown): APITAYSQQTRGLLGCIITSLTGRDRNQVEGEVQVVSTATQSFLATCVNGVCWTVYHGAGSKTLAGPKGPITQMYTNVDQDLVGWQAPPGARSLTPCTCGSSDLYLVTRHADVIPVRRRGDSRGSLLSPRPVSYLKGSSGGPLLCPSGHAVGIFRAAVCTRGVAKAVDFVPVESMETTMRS

`CCC[C@H](NC(=O)[C@@H]1C[C@@]2(CC(c3cc(F)cc(C(F)(F)F)c3)=NO2)CN1C(=O)[C@@H](NC(=O)O[C@H]1CCOC1)C(C)(C)C)C(=O)C(=O)NC1CC1` [Compound 258] was tested, and the pKi was less than 6.30.
In the case of `CCC[C@H](NC(=O)[C@@H]1C[C@]2(CC(c3cccc(Cl)c3)=NO2)CN1C(=O)[C@@H](NC(=O)CCc1cccnc1)C(C)(C)C)C(=O)C(=O)NC1CC1` [Compound 504], the pKi was 6.30 to 7.00.
`CCC[C@H](NC(=O)[C@@H]1C[C@]2(CC(c3cccc(Cl)c3)=NO2)CN1C(=O)[C@@H](NC(=O)[C@H](OC)c1ccccc1)C(C)(C)C)C(=O)C(=O)NC1CC1` [Compound 187] showed a pKi of less than 6.30.
For `CCC[C@H](NC(=O)[C@@H]1C[C@]2(CC(C(=O)c3ccc(Cl)cc3)=NO2)CN1C(=O)[C@@H](NC(=O)O[C@H]1CCOC1)C(C)(C)C)C(=O)C(=O)NC1CC1` [Compound 364], the pKi was less than 6.30.
For `CCC[C@H](NC(=O)[C@@H]1C[C@]2(CC(c3cccc(Cl)c3)=NO2)CN1C(=O)[C@@H](NC(=O)OCC1CCC1)C(C)(C)C)C(=O)C(=O)NC1CC1` [Compound 27], the pKi was 6.30 to 7.00.
`CCCC(NC(=O)[C@@H]1C[C@]2(CC(c3ccc(OC)c(OC)c3)=NO2)CN1C(=O)[C@@H](NC(=O)O[C@H]1CCOC1)C(C)(C)C)C(=O)C(=O)NC1CC1` (stereo partly drawn) [Compound 196] showed a pKi of 6.30 to 7.00.
`CCC[C@H](NC(=O)[C@@H]1C[C@@]2(CC(c3ccccc3)=NO2)CN1C(=O)c1ccc[nH]1)C(=O)C(=O)NC1CC1` [Compound 80] showed a pKi of less than 6.30.
Work on `CCC[C@H](NC(=O)[C@@H]1C[C@]2(CC(c3cncc(Br)c3)=NO2)CN1C(=O)[C@@H](NC(=O)CC1CCCCC1)C(C)(C)C)C(=O)C(=O)NC1CC1` [Compound 41] yielded a pKi greater than 7.00.
With `CCC[C@H](NC(=O)[C@@H]1C[C@]2(CC(c3cccc(Cl)c3)=NO2)CN1C(=O)[C@@H](NC(=O)c1cn(C(C)C)c2ccccc2c1=O)C(C)(C)C)C(=O)C(=O)NC1CC1` [Compound 135] the pKi was less than 6.30.
In the case of `CCC[C@H](NC(=O)[C@@H]1C[C@]2(CC(c3ccc(Cl)cc3)=NO2)CN1C(=O)[C@@H](NC(=O)CC1CCOCC1)C(C)(C)C)C(=O)C(=O)NC1CC1` [Compound 299], the pKi was less than 6.30.
Molecule `CCC[C@H](NC(=O)[C@@H]1C[C@]2(CC(c3ccc(C(=O)O)cc3)=NO2)CN1C(=O)[C@@H](NC(=O)O[C@H]1CCOC1)C(C)(C)C)C(=O)C(=O)NC1CC1` [Compound 543] has a pKi of less than 6.30.
Molecule `CCC[C@H](NC(=O)[C@@H]1C[C@]2(CC(c3ccccc3)=NO2)CN1C(=O)[C@@H](NC(=O)NCC1CCCCC1)C(C)(C)C)C(=O)C(=O)NC1CC1` [Compound 249] has a pKi of 6.30 to 7.00.
`CCC[C@H](NC(=O)[C@@H]1C[C@]2(CC(c3cccc(Cl)c3)=NO2)CN1C(=O)[C@@H](NC(=O)[C@H]1COc2ccccc2O1)C(C)(C)C)C(=O)C(=O)NC1CC1` [Compound 71] was tested, and the pKi was less than 6.30.
For `CCC[C@H](NC(=O)[C@@H]1C[C@]2(CC(c3cccc(Cl)c3)=NO2)CN1C(=O)[C@@H](NC(=O)[C@@H](CC(=O)N1CCCC1)C1CCCCC1)C(C)(C)C)C(=O)C(=O)NC1CC1` [Compound 549], the pKi was greater than 7.00.
Work on `CCC[C@H](NC(=O)[C@@H]1C[C@]2(CC(c3cccc(Cl)c3)=NO2)CN1C(=O)[C@@H](NC(=O)OCc1cccc(C)c1)C(C)(C)C)C(=O)C(=O)NC1CC1` [Compound 174] yielded a pKi of 6.30 to 7.00.
In the case of `CCC[C@H](NC(=O)[C@@H]1C[C@]2(CC(c3ccc(OC)c(Cl)c3)=NO2)CN1C(=O)[C@@H](NC(=O)O[C@H]1CCOC1)C(C)(C)C)C(=O)C(=O)NC1CC1` [Compound 15], the pKi was 6.30 to 7.00.
`CCC[C@H](NC(=O)[C@@H]1C[C@]2(CC(c3ccc(OC)cc3)=NO2)CN1C(=O)[C@@H](NC(=O)CC1CCOCC1)C(C)(C)C)C(=O)C(=O)NC1CC1` [Compound 16] was tested, and the pKi was less than 6.30.
In the case of `CCC[C@H](NC(=O)[C@@H]1C[C@]2(CC(c3cccc(Cl)c3)=NO2)CN1C(=O)[C@@H](NC(=O)[C@@H]1CCC(=O)N1Cc1cccc(C)c1)C(C)(C)C)C(=O)C(=O)NC1CC1` [Compound 518], the pKi was greater than 7.00.
`CCC[C@H](NC(=O)[C@@H]1C[C@]2(CC(c3cccc(Cl)c3)=NO2)CN1C(=O)[C@@H](NC(=O)C(C)Cn1cnc2ccccc21)C(C)(C)C)C(=O)C(=O)NC1CC1` (stereo partly drawn) [Compound 544] was tested, and the pKi was 6.30 to 7.00.
`CCC[C@H](NC(=O)[C@@H]1C[C@]2(CC(c3cccc(Cl)c3)=NO2)CN1C(=O)[C@@H](NC(=O)Cc1cc(=O)[nH]c(=O)[nH]1)C(C)(C)C)C(=O)C(=O)NC1CC1` [Compound 553] gave a pKi of 6.30 to 7.00.
For `CCC[C@H](NC(=O)[C@@H]1C[C@]2(CC(c3ccccc3)=NO2)CN1C(=O)c1ccc[nH]1)C(=O)C(=O)NC1CC1` [Compound 584], the pKi was less than 6.30.
For `CCC[C@H](NC(=O)[C@@H]1C[C@]2(CC(c3ccc4c(c3)CCO4)=NO2)CN1C(=O)[C@@H](NC(=O)CC1CCCCC1)C(C)(C)C)C(=O)C(=O)NC1CC1` [Compound 552], the pKi was 6.30 to 7.00.
`COc1ccc(C2=NO[C@@]3(C2)C[C@@H](C(=O)NC(CC2CCC2)C(=O)C(N)=O)N(C(=O)[C@@H](NC(=O)OCc2ccccc2)C(C)(C)C)C3)c(OC)c1` (stereo partly drawn) [Compound 424] was tested, and the pKi was 6.30 to 7.00.
For `CCC[C@H](NC(=O)[C@@H]1C[C@]2(CC(c3ccc(C(C)C)cc3)=NO2)CN1C(=O)O[C@H]1CCOC1)C(=O)C(=O)NC1CC1` [Compound 405], the pKi was less than 6.30.
`CCC[C@H](NC(=O)[C@@H]1C[C@]2(CC(c3cccc(Cl)c3)=NO2)CN1C(=O)[C@@H](NC(=O)CC1CC(=O)c2ccc(OC)cc21)C(C)(C)C)C(=O)C(=O)NC1CC1` (stereo partly drawn) [Compound 487] gave a pKi of 6.30 to 7.00.
`CCC[C@H](NC(=O)[C@@H]1C[C@]2(CC(c3cccc(OC(F)(F)F)c3)=NO2)CN1C(=O)[C@@H](NC(=O)O[C@H]1CCOC1)C(C)(C)C)C(=O)C(=O)NC1CC1` [Compound 244] gave a pKi of 6.30 to 7.00.
In the case of `CCC[C@H](NC(=O)[C@@H]1C[C@]2(CC(c3cccc(Cl)c3)=NO2)CN1C(=O)[C@@H](NC(=O)OCc1ccccc1Cl)C(C)(C)C)C(=O)C(=O)NC1CC1` [Compound 39], the pKi was 6.30 to 7.00.
Molecule `CCC[C@H](NC(=O)[C@@H]1C[C@]2(CC(c3cc(C)c(OC)c(C)c3)=NO2)CN1C(=O)[C@@H](NC(=O)O[C@H]1CCOC1)C(C)(C)C)C(=O)C(=O)NC1CC1` [Compound 224] has a pKi of 6.30 to 7.00.
`CCC[C@H](NC(=O)[C@@H]1C[C@]2(CC(c3cc(Cl)c(OC)c(OC)c3)=NO2)CN1C(=O)[C@@H](NC(=O)CC1CCCCC1)C(C)(C)C)C(=O)C(=O)NC1CC1` [Compound 494] showed a pKi greater than 7.00.
`CCC[C@H](NC(=O)[C@@H]1C[C@]2(CC(c3cccc(Cl)c3)=NO2)CN1C(=O)[C@@H](NC(=O)OCCCc1ccccn1)C(C)(C)C)C(=O)C(=O)NC1CC1` [Compound 373] gave a pKi of 6.30 to 7.00.
Work on `CCC[C@H](NC(=O)[C@@H]1C[C@]2(CC(c3ccc(OC)c(Cl)c3)=NO2)CN1C(=O)[C@@H](NC(=O)CC1CCOCC1)C(C)(C)C)C(=O)C(=O)NC1CC1` [Compound 279] yielded a pKi of 6.30 to 7.00.
Molecule `CCC[C@H](NC(=O)[C@@H]1C[C@]2(CC(c3cccc(Cl)c3)=NO2)CN1C(=O)[C@@H](NC(=O)NCC)C(C)(C)C)C(=O)C(=O)NC1CC1` [Compound 123] has a pKi greater than 7.00.
`CCC[C@H](NC(=O)[C@@H]1C[C@]2(CC(c3cccc(Cl)c3)=NO2)CN1C(=O)[C@@H](NC(=O)OC(C)C)C(C)(C)C)C(=O)C(=O)NC1CC1` [Compound 193] showed a pKi of 6.30 to 7.00.
With `CCC[C@H](NC(=O)[C@@H]1C[C@]2(CC(c3cccc(Cl)c3)=NO2)CN1C(=O)[C@@H](NC(=O)O[C@H]1CCOC1)C(C)(C)C)C(=O)C(=O)NC1CC1` [Compound 83] the pKi was 6.30 to 7.00.
In the case of `CCC[C@H](NC(=O)[C@@H]1C[C@]2(CC(c3cccc(Cl)c3)=NO2)CN1C(=O)[C@@H](NC(=O)CC(C)(C)C)C(C)(C)C)C(=O)C(=O)NC1CC1` [Compound 319], the pKi was 6.30 to 7.00.
Molecule `CCC[C@H](NC(=O)[C@@H]1C[C@]2(CC(c3ccc4c(c3)OCO4)=NO2)CN1C(=O)[C@@H](NC(=O)[C@@H](NC(=O)c1cnccn1)C(C)(C)C)C(C)(C)C)C(=O)C(=O)NC1CC1` [Compound 450] has a pKi greater than 7.00.
Molecule `CCC[C@H](NC(=O)[C@@H]1C[C@]2(CC(c3cc(Cl)cc(Cl)c3)=NO2)CN1C(=O)[C@@H](NC(=O)CC1CCOCC1)C(C)(C)C)C(=O)C(=O)NC1CC1` [Compound 285] has a pKi of 6.30 to 7.00.
Work on `CCC[C@H](NC(=O)[C@@H]1C[C@]2(CC(c3cccc(Cl)c3)=NO2)CN1C(=O)[C@@H](NC(=O)OCc1cc(F)ccc1F)C(C)(C)C)C(=O)C(=O)NC1CC1` [Compound 561] yielded a pKi of 6.30 to 7.00.
Work on `CCC[C@H](NC(=O)[C@@H]1C[C@]2(CC(c3cccc(Cl)c3)=NO2)CN1C(=O)[C@@H](NC(=O)NCC)C1CCCCC1)C(=O)C(=O)NC1CC1` [Compound 103] yielded a pKi of 6.30 to 7.00.
With `CCC[C@H](NC(=O)[C@@H]1C[C@]2(CC(c3cccc(Cl)c3)=NO2)CN1C(=O)[C@@H](NC(=O)CC(C)C)C(C)(C)C)C(=O)C(=O)NC1CC1` [Compound 532] the pKi was less than 6.30.
For `CCC[C@H](NC(=O)[C@@H]1C[C@]2(CC(c3cccc(Cl)c3)=NO2)CN1C(=O)[C@@H](NC(=O)OCc1ccncc1)C(C)(C)C)C(=O)C(=O)NC1CC1` [Compound 357], the pKi was 6.30 to 7.00.
Molecule `CCC[C@H](NC(=O)[C@@H]1C[C@]2(CC(c3cccc(Cl)c3)=NO2)CN1C(=O)[C@@H](NC(=O)CC1CCCCCC1)C(C)(C)C)C(=O)C(=O)NC1CC1` [Compound 360] has a pKi of less than 6.30.
`CCC[C@H](NC(=O)[C@@H]1C[C@]2(CC(c3cccc(C(F)(F)F)c3)=NO2)CN1C(=O)[C@@H](NC(=O)O[C@H]1CCOC1)C(C)(C)C)C(=O)C(=O)NC1CC1` [Compound 560] was tested, and the pKi was 6.30 to 7.00.
`CCC[C@H](NC(=O)[C@@H]1C[C@@]2(CC(c3cc(F)c(F)c(F)c3)=NO2)CN1C(=O)[C@@H](NC(=O)O[C@H]1CCOC1)C(C)(C)C)C(=O)C(=O)NC1CC1` [Compound 455] showed a pKi of less than 6.30.
`CCC[C@H](NC(=O)[C@@H]1C[C@]2(CC(c3ccc(F)c(Cl)c3)=NO2)CN1C(=O)[C@@H](NC(=O)O[C@H]1CCOC1)C(C)(C)C)C(=O)C(=O)NC1CC1` [Compound 301] showed a pKi of 6.30 to 7.00.
With `CCC[C@H](NC(=O)[C@@H]1C[C@]2(CC(c3cc(C)cc(C)c3)=NO2)CN1C(=O)[C@@H](NC(=O)O[C@H]1CCOC1)C(C)(C)C)C(=O)C(=O)NC1CC1` [Compound 519] the pKi was 6.30 to 7.00.
`CCC[C@H](NC(=O)[C@@H]1C[C@]2(CC(c3ccc4c(c3)OCO4)=NO2)CN1C(=O)[C@@H](NC(C)=O)C(C)(C)C)C(=O)C(=O)NC1CC1` [Compound 570] gave a pKi of 6.30 to 7.00.
With `CCC[C@H](NC(=O)[C@@H]1C[C@]2(CC(c3cccc(Cl)c3)=NO2)CN1C(=O)[C@@H](NC(=O)C1(O)CCCC1)C(C)(C)C)C(=O)C(=O)NC1CC1` [Compound 20] the pKi was less than 6.30.
